Source: US10221163B2 (priority 2015, dated 2019)
Where two headings read alike, the source gives them in different places.

Tests used:
[1] = tested on: Serratia marcescens expressing IMP-1 (CL5741); type: cell-based; details: with imipenem 1 μg/ml; 95% inhibition of bacterial growth
How it was run: (§1)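 Clinical isolates (E. coli NDM-1, S. marcescens IMP-1, K. pneumoniae VIM-1) were diluted 1:100 from saline suspension into 1.1×CAMHB and exposed to test compound with imipenem at 1 μg/ml. Plates were incubated at 35° C for 22 hours to 24 hours, and growth was read by absorbance.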

[2] = tested on: Escherichia coli expressing NDM-1 (CLB30005, CLB30016); type: cell-based; details: with imipenem 1 μg/ml; 95% inhibition of bacterial growth
How it was run: as §1

[3] = tested on: Klebsiella pneumoniae expressing VIM-1 (IHMA599644); type: cell-based; details: with imipenem 1 μg/ml; 95% inhibition of bacterial growth
How it was run: as §1

VIM-1 = VIM-1 (Pseudomonas aeruginosa (strain ATCC 15692 / DSM 22644 / CIP 104116 / JCM 14847 / LMG 12228 / 1C / PRS 101 / PAO1), UniProt A0A0F7KYQ8); experiment: biochemical; details: CCF2-FA substrate, 30 pM enzyme, 2 hours at 25° C.
How it was run: (§2)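 Semi-log dose-response curves, fitted with a 4-parameter model, gave IC50s. The underlying signal was CCF2-FA fluorescence following 2 hours at 25° C with enzyme, substrate and inhibitor combined.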

NDM-1 = NDM-1 (Klebsiella pneumoniae, UniProt C7C422); experiment: biochemical; type: biochemical; details: fluorescence assay, CCF2-FA substrate, 1 pM enzyme, 2 hours at 25° C.; read-out: NDM-1 IC50
Chain of NDM-1 (C7C422 whole entry, looked up, species assumed): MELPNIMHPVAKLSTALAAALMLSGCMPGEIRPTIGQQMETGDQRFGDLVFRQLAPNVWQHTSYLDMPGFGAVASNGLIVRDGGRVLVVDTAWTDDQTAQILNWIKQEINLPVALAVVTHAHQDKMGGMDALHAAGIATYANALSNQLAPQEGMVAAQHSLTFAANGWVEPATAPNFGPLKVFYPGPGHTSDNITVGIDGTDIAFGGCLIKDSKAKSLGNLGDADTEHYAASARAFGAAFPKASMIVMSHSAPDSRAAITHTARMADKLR
How it was run: as §2

IMP-1 = IMP-1 (Serratia marcescens, UniProt P52699); experiment: biochemical; type: biochemical; details: fluorescence assay, CCF2-FA substrate, 2 pM enzyme, 2 hours at 25° C.; read-out: IMP-1 IC50
Chain of IMP-1 (P52699 whole entry, looked up, species assumed): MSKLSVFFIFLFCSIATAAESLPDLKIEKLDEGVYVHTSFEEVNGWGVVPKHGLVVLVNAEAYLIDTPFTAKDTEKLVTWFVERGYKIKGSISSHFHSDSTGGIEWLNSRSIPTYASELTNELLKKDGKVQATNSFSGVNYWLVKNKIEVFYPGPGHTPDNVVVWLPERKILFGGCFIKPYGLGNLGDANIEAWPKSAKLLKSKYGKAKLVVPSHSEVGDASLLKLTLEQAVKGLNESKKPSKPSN
How it was run: as §2

[4] = tested on: Pseudomonas aeruginosa efflux− (MB9799), IMP-1; type: cell-based; details: concentration restoring susceptibility to imipenem at 2 μg/mL in the presence of a class A, C, D serine β-lactamase inhibitor closely related to relebactam
How it was run: (§3)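 Steps: add fixed imipenem and/or ceftazidime (usually CLSI breakpoint) and fixed AmpC-directed class A/C inhibitor to microbroth MIC wells; titrate MBL inhibitor; record concentration regaining susceptibility for each PAO1-derived strain; divide efflux+ by efflux− value.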

[5] = tested on: Pseudomonas aeruginosa MB9798 vs MB9799; details: ratio MITC95 PA_9798/MITC95 PA_9799
How it was run: as §3

[6] = tested on: Pseudomonas aeruginosa efflux+ (MB9798), IMP-1; type: cell-based; details: concentration restoring susceptibility to imipenem at 2 μg/mL in the presence of a class A, C, D serine β-lactamase inhibitor closely related to relebactam
How it was run: as §3

[7] = fluorescence assay, read-out: VIM-1 IC50

Compound	Serratia marcescens expressing IMP-1 (CL5741) MITC95 [1] [µM]	Escherichia coli expressing NDM-1 (CLB30016) MITC95 [2] [µM]	Klebsiella pneumoniae expressing VIM-1 (IHMA599644) MITC95 [3] [µM]	IC50 (VIM-1; VIM-1 IC50, fluorescence assay) [nM]	IC50 (NDM-1) [nM]	IC50 (IMP-1) [nM]	P. aeruginosa expressing IMP-1, efflux − (MB9799) MITC95 [4] [µM]	Efflux ratio [5]	P. aeruginosa expressing IMP-1, efflux + (MB9798) MITC95 [6] [µM]	IC50 (VIM-1; [7]) [nM]
Nc1nc2c(-c3ccc(S(=O)(=O)N[C@@H]4CNC[C@H]4O)c(S(N)(=O)=O)c3-c3nnn[nH]3)cccc2[nH]1 [Example 171, 4-(2-amino-1H-benzo[d]imidazol-4-yl)-N^1-((3R,4R)-4-hydroxypyrrolidin-3-yl)-3-(1H-tetrazol-5-yl)benzene-1,2-disulfonamide]	1.563	0.7813	3.125	0.506	0.125	1.39	1.563	0.50	0.7813	
Nc1nc2c(-c3ccc(S(=O)(=O)N[C@H]4CN[C@H](CO)C4)c(S(N)(=O)=O)c3-c3nnn[nH]3)cccc2[nH]1 [Example 172, 4-(2-amino-1H-benzo[d]imidazol-4-yl)-N^1-((3R,5S)-5-(hydroxymethyl)pyrrolidin-3-yl)-3-(1H-tetrazol-5-yl)benzene-1,2-disulfonamide]	0.7813	0.5859	1.563	0.159	0.05	0.509	0.7813	0.50	0.3906	
Nc1nc2c(-c3ccc(S(=O)(=O)N[C@H]4CN[C@@H](CO)C4)c(S(N)(=O)=O)c3-c3nnn[nH]3)cccc2[nH]1 [Example 173, 4-(2-amino-1H-benzo[d]imidazol-4-yl)-N^1-((3R,5R)-5-(hydroxymethyl)pyrrolidin-3-yl)-3-(1H-tetrazol-5-yl)benzene-1,2-disulfonamide]	0.7813	0.7813	3.125	0.284	0.0948	0.933	1.563	1.00	1.563	
Nc1nc2c(-c3ccc(S(=O)(=O)N[C@@H]4CN[C@@H](CO)C4)c(S(N)(=O)=O)c3-c3nnn[nH]3)cccc2[nH]1 [Example 174, 4-(2-amino-1H-benzo[d]imidazol-4-yl)-N^1-((3S,5R)-5-(hydroxymethyl)pyrrolidin-3-yl)-3-(1H-tetrazol-5-yl)benzene-1,2-disulfonamide]	1.563	3.125	3.125	0.39	0.117	1.66	1.563	1.00	1.563	
Nc1nc2c(-c3ccc(S(=O)(=O)N[C@@H]4CN[C@H](CO)C4)c(S(N)(=O)=O)c3-c3nnn[nH]3)cccc2[nH]1 [Example 175, 4-(2-amino-1H-benzo[d]imidazol-4-yl)-N^1-((3S,5S)-5-(hydroxymethyl)pyrrolidin-3-yl)-3-(1H-tetrazol-5-yl)benzene-1,2-disulfonamide]	1.563	0.7813	3.125	0.334	0.127	1	1.563	0.50	0.7813	
Nc1nc2c(-c3ccc(S(=O)(=O)N[C@@]4(CO)CCNC4)c(S(N)(=O)=O)c3-c3nnn[nH]3)cccc2[nH]1 [Example 176, (S)-4-(2-amino-1H-benzo[d]imidazol-4-yl)-N1-(3-(hydroxymethyl)pyrrolidin-3-yl)-3-(1H-tetrazol-5-yl)benzene-1,2-disulfonamide]	0.7813	0.3906	1.563		0.0524	0.728	0.7813	1.00	0.7813	0.192
Nc1nc2c(-c3ccc(S(=O)(=O)N[C@]4(CO)CCNC4)c(S(N)(=O)=O)c3-c3nnn[nH]3)cccc2[nH]1 [Example 177, (R)-4-(2-amino-1H-benzo[d]imidazol-4-yl)-N1-(3-(hydroxymethyl)pyrrolidin-3-yl)-3-(1H-tetrazol-5-yl)benzene-1,2-disulfonamide]	1.563	0.7813	1.563		0.0669	0.862	1.563	0.50	0.7813	0.246
Nc1nc2c(-c3ccc(S(=O)(=O)N[C@@H]4CCCNC4)c(S(N)(=O)=O)c3-c3nnn[nH]3)cccc2[nH]1 [Example 178, (R)-4-(2-amino-1H-benzo[d]imidazol-4-yl)-N^1-(piperidin-3-yl)-3-(1H-tetrazol-5-yl)benzene-1,2-disulfonamide]	1.563	1.563	3.125		0.064	0.87	1.563	1.00	1.563	0.266
Nc1nc2c(-c3ccc(S(=O)(=O)N[C@H]4CCCNC4)c(S(N)(=O)=O)c3-c3nnn[nH]3)cccc2[nH]1 [Example 179, (S)-4-(2-amino-1H-benzo[d]imidazol-4-yl)-N^1-(piperidin-3-yl)-3-(1H-tetrazol-5-yl)benzene-1,2-disulfonamide]	3.125	1.563	3.125		0.219	3	1.563	2.00	3.125	0.904
NCCNS(=O)(=O)c1ccc(-c2cc(F)cc3[nH]c(N)nc23)c(-c2nnn[nH]2)c1S(N)(=O)=O [Example 180, 4-(2-amino-6-fluoro-1H-benzo[d]imidazol-4-yl)-N^1-(2-aminoethyl)-3-(1H-tetrazol-5-yl)benzene-1,2-disulfonamide]	0.7813	0.3906	1.563		0.0472	0.387	0.7813	0.50	0.3906	0.161
